{"source": "patent US12029728B2", "about": "“Small molecules with anti-protozoan activity” (New Mexico Tech University Research Park Corporation, priority 2018, dated 2024)", "key": {"L. major-infected MDMs": {"tested_on": "L. major-infected MDMs", "experiment": "L. major-infected human MDMs, quantitative cell bioimaging", "format": "cell-based, Leishmania major", "settings": "1 μM, 5 μM, 10 μM", "method": "Human MDMs were cultured on glass slides and incubated with metacyclic L. major for 24 hours to allow for internalization of parasites. After the 24-hour L. major incubation period, extracellular parasites were removed from the culture. 24 hours after the removal of extracellular parasites, infected cells were treated with vehicle control (DMSO), 5 μM MTF, 1 μM Compound 2, 5 μM Compound 2, 10 μM Compound 2, 2 μM Compound 7, or 20 μM Compound 7. Following treatment, the cells were fixed with 2% paraformaldehyde and subsequently stained with the DNA stain Hoechst 33342. The stained cover slips were transferred onto glass slides, and quantitative cell bioimaging was utilized to determine the number of amastigotes per 500 cells using a CellInsight CX5 High Content screening platform."}, "HeLa cells": {"tested_on": "HeLa cells", "experiment": "MTT cell survival assay, HeLa", "format": "cell-based", "settings": "Homo sapiens, 48 hours at 37° C., read-out: IC50 (GI50), cell survival", "method": "The GI50 (IC50), the concentration at which 50% cell survival is seen upon treatment with a compound, was determined for Compound 2 in Jurkat, U87, HeLa, and ARPE cells. Cells were cultured in 96-well plates and incubated with 50 μM, 25 μM, 12.5 μM, 6 μM, 3 μM, 1.5 μM, or 0 μM of Compound 2 for 48 hours at 37° C. Following the incubation period, a 3-(4,5-dimethylthiazol-2-yl)-2,5-diphenyl tetrazolium bromide (MTT) assay was performed. In brief, a 10% volume of MTT was added to each well. Cells were incubated with MTT for 2 hours, at which time cell supernatant was removed and cells were taken into 100 μL DMSO. The absorbance of cell solutions was then read at 595 nm. A decrease in absorbance indicated a decrease in cell survival."}, "T. cruzi epimastigotes": {"tested_on": "T. cruzi epimastigotes", "experiment": "MIC against T. cruzi epimastigotes, ATP assay", "format": "cell-based", "settings": "Trypanosoma cruzi, 48 hours at 30° C.", "method": "A 1:20 working dilution of T. cruzi epimastigotes was prepared in LIT1029 medium from a saturated (˜4×10^6 cells/mL) culture. 100 μL of the 1:20 working dilution was plated, and the epimastigotes were incubated with 50 μM, 25 μM, 12.5 μM, 6.25 μM, 3.13 μM, 1.5 μM, or 0 μM Compound 2 for 48 hours at 30° C. After incubation with Compound 2, T. cruzi viability was assessed via an ATP assay. […] An increase in relative light units (RLU) indicates the presence of ATP and viable cells. Phenylarsine oxide (PAO) was used as a control."}, "[1]": {"tested_on": "T. cruzi-infected ARPE cells", "experiment": "Treatment of T. cruzi-infected ARPE cells, imaging", "format": "cell-based, Trypanosoma cruzi", "settings": "for amastigotes in ARPE cultures: 5 days, EVOS imaging; for T. cruzi seen in EVOS image: day 12", "method": "Four confocal dishes were prepared with 10,000 ARPE cells, which were adhered overnight at 37° C. The four dishes were ARPE control cells, non-infected but 5 μM Compound 2-treated cells, non-treated but infected cells, and infected cells treated with 5 μM Compound 2. For the infected dishes, ARPE media was removed and replaced with 2 mL of infectious amastigotes and trypomastigotes from the ARPE passaged plate. The dishes were then incubated for 2 hours at 37° C. The treated dishes were incubated with 5 μM Compound 2 for 5 days at 37° C., while untreated dishes were incubated in fresh media without Compound 2 for 5 days at 37° C. After the 5-day period, cells were washed 3 times in ARPE media and fixed with 1 mL 4% paraformaldehyde. Cells were visualized using an EVOS cell imaging system. Amastigotes appeared as small, dense, and mostly birefringent in images.\nThe experiment above was repeated using 1 μM Compound 2.\nFour confocal dishes with 10,000 ARPE cells were prepared and adhered overnight at 37° C. The four dishes were: 1) ARPE control cells; 2) non-infected cells treated with 1 μM Compound 2; 3) untreated infected cells; and 4) T. cruzi-infected cells treated with 1 μM Compound 2. For the infected dishes, ARPE media was removed and replaced with 2 mL of infectious amastigotes and trypomastigotes expressing tdTomato (from ARPE passaged plate). The dishes were then incubated overnight for 7 days at 37° C. The untreated dishes were incubated in fresh media without Compound 2 for 7 days at 37° C. After the 7-day incubation period, cells were washed 3 times in ARPE media and fixed with 1 mL 4% paraformaldehyde. tdTomato fluorescence, which is indicative of viable T. cruzi, was then observed via fluorescence microscopy.\nARPE cells were plated in confocal dishes (20,000 cells per dish) and incubated overnight at 37° C. Cells were infected with T. cruzi by incubating cells with T. cruzi amastigotes and trypomastigotes expressing tdTomato (˜2×10^5 cells in total) for 24 hours at 37° C. Uninfected cells served as controls. Following the T. cruzi incubation period, extracellular parasites were removed, and the medium was replaced with DMEM/F12 culture media with or without 1 μM Compound 2. The cells were incubated further for 24 hours at 37° C. Cells were then treated two more times with fresh DMEM/F12 culture media with or without 1 μM Compound 2 and incubated for 24 hours at 37° C. Following fixation of cells in 4% paraformaldehyde, plates were imaged for tdTomato fluorescence, which is indicative of viable T. cruzi, such that the effects of repeated Compound 2 treatment could be compared to a single treatment with Compound 2.\nARPE cells were plated in confocal dishes (20,000 cells per dish) and incubated overnight at 37° C. Cells were infected with T. cruzi by incubating cells with T. cruzi amastigotes and trypomastigotes expressing tdTomato (˜2×10^5 cells in total) for 24 hours at 37° C. before washing dishes three times with DMEM/F12 culture media. Uninfected plates served as controls. The dishes were then treated with 2 μM Compound 2 or left untreated as a control and incubated further for 5 days at 37° C. The treated dish received a single treatment of Compound 2 on day 1. Dishes were washed twice with DMEM/F12 media and fixed in 4% paraformaldehyde before being imaged using confocal microscopy. […] The other Compound 2 dishes that were not incubated with T. cruzi a second time were used as controls. Following fixation of cells in 4% paraformaldehyde, tdTomato fluorescence of the cells was assessed using confocal microscopy.\nARPE cells were plated in confocal dishes (20,000 cells per dish) and incubated overnight at 37° C. Dishes were incubated with T. cruzi amastigotes and trypomastigotes expressing tdTomato (˜2×10^5 cells) for 48 hours at 37° C. Untreated cells served as controls. Cells were then washed 3 times with cell medium, treated with 5 μM Compound 2 or left untreated as a control and incubated further for 2 days at 37° C. […]"}}, "data": [{"smiles": "O=C(NO)C(c1ccccc1)c1c(-c2ccc3ccccc3c2)[nH]c2ccccc12", "note": "(stereo not shown) [Compound 2, N-hydroxy-2-(2-(naphthalen-2-yl)-1H-indol-3-yl)-2-phenylacetamide]", "values": [{"measurement": "total number of parasites per cell", "setting": "L. major-infected MDMs", "value": "decreased the total number of parasites per cell in a dose dependent manner"}, {"measurement": "IC50", "setting": "HeLa cells", "value": "13.7 ± 0.75", "unit": "µM"}, {"measurement": "MIC", "setting": "T. cruzi epimastigotes", "value": "~6", "unit": "µM"}, {"measurement": "amastigotes in ARPE cultures", "setting": "[1]; 1 μM", "value": "absent"}, {"measurement": "intracellular T. cruzi parasites", "setting": "[1]; 1 μM, 7 days, tdTomato fluorescence", "value": "eradicated"}, {"measurement": "eradication of intracellular T. cruzi and reinfection", "setting": "[1]; 2 μM, second incubation with T. cruzi", "value": "eradicated intracellular T. cruzi and protected cells from reinfection"}, {"measurement": "T. cruzi in ARPE cells (CherryTomato fluorescence)", "setting": "[1]; 2 μM, two days", "value": "eradicated T. cruzi"}, {"measurement": "T. cruzi seen in EVOS image", "setting": "[1]; 5 μM for 2 days", "value": "Small amounts of T. cruzi dots were observed"}, {"measurement": "intracellular parasites", "setting": "[1]; 5 μM, 2 days, after 48 hours infection", "value": "killed intracellular parasites"}, {"measurement": "amastigotes in ARPE cultures", "setting": "[1]; 5 μM", "value": "absent"}, {"measurement": "T. cruzi seen in EVOS image", "setting": "[1]; 10 μM for 2 days", "value": "could not be seen"}, {"measurement": "state of infected ARPE cells after treatment", "setting": "[1]; 4 treatments with 2 μM over 4 days", "value": "cured"}, {"measurement": "T. cruzi-infected cell foci in fluorescence images", "setting": "[1]; 5 (μM) for 2 days, day 17", "value": "Only two T. cruzi-infected cell foci were found"}, {"measurement": "tdTomato fluorescence", "setting": "[1]; 10 (μM) for 2 days, day 17", "value": "no tdTomato fluorescence was observed"}, {"measurement": "long term treatment efficacy against T. cruzi infection", "setting": "[1]; daily 2 μM for 5 days, then 5 days without treatment", "value": "long-term full cure"}, {"measurement": "parasite death", "setting": "[1]; one treatment with 2 μM, 5-day incubation", "value": "full parasite death"}, {"measurement": "T. cruzi infection after treatment", "setting": "[1]; repeated treatment (three times) with 1 μM, every 24 hours", "value": "eradicated the T. cruzi infection"}, {"measurement": "intracellular T. cruzi and re-infection", "setting": "[1]; single dose of 2 μM, 2 days", "value": "killed intracellular T. cruzi and protected the cells from re-infection"}, {"measurement": "T. cruzi infection after treatment", "setting": "[1]; single treatment with 1 μM", "value": "only a small portion of the T. cruzi infection remaining"}]}]}
